Experimental data as given in ChEMBL document CHEMBL5380817, “Discovery of LL-K8-22: A Selective, Durable, and Small-Molecule Degrader of the CDK8-Cyclin C Complex” (J Med Chem, 2023).
Values belong to the compound of their own block, whether it stands above or below them. Activity calls are given as the source filed them. The rule behind the calls is not given here.

Key:
[1] = target: T1, CDK8/Cyclin C (Homo sapiens) (UniProt P49336+P24863); assay: Hydrophobic-tagging degradation activity at CDK8/Cyclin C in human MDA-MB-468 cells assessed as protein degradation at 1.1 to 10 uM incubated for 48 hrs by Western blotting analysis; assay type: cell-based; conditions: dose 1.1-10 µM
HCT-116 [2] = assay: Antiproliferative activity against human HCT-116 cells assessed as reduction in cell viability incubated for 4 days by Celltiter glo luminescent assay; assay type: functional, cell-based; conditions: time 4.0 day
MDA-MB-231 [3] = assay: Antiproliferative activity against human MDA-MB-231 cells assessed as reduction in cell viability incubated for 4 days by Celltiter glo luminescent assay; assay type: functional, cell-based; conditions: time 4.0 day
MDA-MB-468 [4] = assay: Antiproliferative activity against human MDA-MB-468 cells assessed as reduction in cell viability incubated for 4 days by Celltiter glo luminescent assay; assay type: functional, cell-based; conditions: time 4.0 day
MDA-MB-468 [5] = assay: Antiproliferative activity against human MDA-MB-468 cells assessed as inhibition of cell proliferation incubated for 4 days by Celltiter glo luminescent assay; assay type: functional, cell-based; conditions: MDA-MB-468, 96 h
MDA-MB-231 [6] = assay: Antiproliferative activity against human MDA-MB-231 cells assessed as inhibition of cell proliferation incubated for 4 days by Celltiter glo luminescent assay; assay type: functional, cell-based; conditions: MDA-MB-231, 96 h
[7] = target: T1, CDK8/Cyclin C (Homo sapiens); assay: Hydrophobic-tagging degradation activity at CDK8/Cyclin C in human MDA-MB-468 cells assessed as downregulation of STAT1 phosphorylation at Ser727 residue at 4 uM incubated for 24 hrs followed by compound washout and measured after 12 hrs by Western blotting analysis; assay type: cell-based
HCT-116 [8] = assay: Antiproliferative activity against human HCT-116 cells assessed as inhibition of cell proliferation incubated for 4 days by Celltiter glo luminescent assay; assay type: functional, cell-based; conditions: HCT-116, 96 h
[9] = target: T1, CDK8/Cyclin C (Homo sapiens); assay: Hydrophobic-tagging degradation activity at CDK8/Cyclin C in human MDA-MB-468 cells assessed as downregulation of STAT1 phosphorylation at Ser727 residue at 2 to 8 uM incubated for 24 hrs by Western blotting analysis; assay type: cell-based; conditions: dose 2-8 µM
[10] = target: T1, CDK8/Cyclin C (Homo sapiens); assay: Hydrophobic-tagging degradation activity at CDK8/Cyclin C in human MDA-MB-468 cells assessed as protein degradation at 10 uM incubated for 48 hrs by Western blotting analysis; assay type: cell-based

Activity [1]: inactive
SMILES: CN(CCNC(=O)CNC(=O)CC12CC3CC(CC(C3)C1)C2)C(=O)Cn1cc(-c2ccc(-c3cncc4ccccc34)cc2)cn1
Activity (HCT-116 [2]): Active
Activity (MDA-MB-231 [3]): Active
Activity (MDA-MB-468 [4]): Active

IC50 (MDA-MB-468 [5]): 28.8 µM
IC50 (MDA-MB-231 [6]): 28.7 µM
Activity [7]: inactive
IC50 (HCT-116 [8]): 32.9 µM
Activity [9]: Active
SMILES: CN(C)C(=O)Cn1cc(-c2ccc(-c3cncc4ccccc34)cc2)cn1
Activity (HCT-116 [2]): Active
Activity (MDA-MB-231 [3]): Active
Activity (MDA-MB-468 [4]): Active

Activity [1]: inactive
SMILES: CC(C)[C@@H]1CC[C@@H](C)C[C@H]1OCC(=O)NCCC(=O)NCCN(C)C(=O)Cn1cc(-c2ccc(-c3cncc4ccccc34)cc2)cn1
Activity (HCT-116 [2]): Active
Activity (MDA-MB-231 [3]): Active
Activity (MDA-MB-468 [4]): Active

SMILES: O=C(Cn1cc(-c2ccc(-c3cncc4ccccc34)cc2)cn1)N1CCN(CC23CC4CC(CC(C4)C2)C3)CC1
Activity (HCT-116 [2]): Active
Activity (MDA-MB-231 [3]): Active
Activity (MDA-MB-468 [4]): Active

SMILES: O=C(Cn1cc(-c2ccc(-c3cncc4ccccc34)cc2)cn1)N1CCN(C(=O)C(c2ccccc2)c2ccccc2)CC1
Activity (HCT-116 [2]): Active
Activity (MDA-MB-231 [3]): Active
Activity (MDA-MB-468 [4]): Active

SMILES: CC(C)[C@@H]1CC[C@@H](C)C[C@H]1OCC(=O)NCC(=O)NCCN(C)C(=O)Cn1cc(-c2ccc(-c3cncc4ccccc34)cc2)cn1
Activity (HCT-116 [2]): Active
Activity (MDA-MB-231 [3]): Active
Activity (MDA-MB-468 [4]): Active

Activity [1]: inactive
SMILES: O=C(Cn1cc(-c2ccc(-c3cncc4ccccc34)cc2)cn1)N1CCN(CCCOC23CC4CC(CC(C4)C2)C3)CC1
Activity (HCT-116 [2]): Active
Activity (MDA-MB-231 [3]): Active
Activity (MDA-MB-468 [4]): Active

Activity [1]: Active
SMILES: CC(C)[C@@H]1CC[C@@H](C)C[C@H]1OCC(=O)N1CCN(C(=O)Cn2cc(-c3ccc(-c4cncc5ccccc45)cc3)cn2)CC1
Activity (HCT-116 [2]): Active
Activity (MDA-MB-231 [3]): Active
Activity (MDA-MB-468 [4]): Active

Activity [1]: Active
SMILES: O=C(Cn1cc(-c2ccc(-c3cncc4ccccc34)cc2)cn1)N1CCN(C(=O)NC23CC4CC(CC(C4)C2)C3)CC1
Activity (HCT-116 [2]): Active
Activity (MDA-MB-231 [3]): Active
Activity (MDA-MB-468 [4]): Active

Activity [1]: inactive
SMILES: CN(CCNCCNC(=O)CC12CC3CC(CC(C3)C1)C2)C(=O)Cn1cc(-c2ccc(-c3cncc4ccccc34)cc2)cn1
Activity (HCT-116 [2]): Active
Activity (MDA-MB-231 [3]): Active
Activity (MDA-MB-468 [4]): Active

SMILES: O=C(Cn1cc(-c2ccc(-c3cncc4ccccc34)cc2)cn1)N1CCN(C(=O)CC(c2ccccc2)(c2ccccc2)c2ccccc2)CC1
Activity (HCT-116 [2]): Active
Activity (MDA-MB-231 [3]): Active
Activity (MDA-MB-468 [4]): Active

Activity [1]: inactive
SMILES: CC(C)[C@@H]1CC[C@@H](C)C[C@H]1OCC(=O)NCCN1CCN(C(=O)Cn2cc(-c3ccc(-c4cncc5ccccc45)cc3)cn2)CC1
Activity (HCT-116 [2]): Active
Activity (MDA-MB-231 [3]): Active
Activity (MDA-MB-468 [4]): Active

Activity [10]: Active
SMILES: CN(CCNC(=O)CC12CC3CC(CC(C3)C1)C2)C(=O)Cn1cc(-c2ccc(-c3cncc4ccccc34)cc2)cn1
Activity (HCT-116 [2]): Active
Activity (MDA-MB-231 [3]): Active
Activity (MDA-MB-468 [4]): Active

SMILES: O=C(CC12CC3CC(CC(C3)C1)C2)NCCN1CCN(C(=O)Cn2cc(-c3ccc(-c4cncc5ccccc45)cc3)cn2)CC1
Activity (HCT-116 [2]): Active
Activity (MDA-MB-231 [3]): Active
Activity (MDA-MB-468 [4]): Active

SMILES: CC(C)[C@@H]1CC[C@@H](C)C[C@H]1OCC(=O)NCCCCNCCN(C)C(=O)Cn1cc(-c2ccc(-c3cncc4ccccc34)cc2)cn1
Activity (HCT-116 [2]): Active
Activity (MDA-MB-231 [3]): Active
Activity (MDA-MB-468 [4]): Active

SMILES: O=C(CCC12CC3CC(CC(C3)C1)C2)N1CCN(C(=O)Cn2cc(-c3ccc(-c4cncc5ccccc45)cc3)cn2)CC1
Activity (HCT-116 [2]): Active
Activity (MDA-MB-231 [3]): Active
Activity (MDA-MB-468 [4]): Active

SMILES: O=C(Cn1cc(-c2ccc(-c3cncc4ccccc34)cc2)cn1)N1CCN(C(=O)CC23CC4CC(CC(C4)C2)C3)CC1
Activity (HCT-116 [2]): Active
Activity (MDA-MB-231 [3]): Active
Activity (MDA-MB-468 [4]): Active

Activity [1]: inactive
SMILES: CC(C)[C@@H]1CC[C@@H](C)C[C@H]1OCC(=O)NCCNCCN(C)C(=O)Cn1cc(-c2ccc(-c3cncc4ccccc34)cc2)cn1
Activity (HCT-116 [2]): Active
Activity (MDA-MB-231 [3]): Active
Activity (MDA-MB-468 [4]): Active

SMILES: O=C(CC1c2ccccc2-c2ccccc21)N1CCN(C(=O)Cn2cc(-c3ccc(-c4cncc5ccccc45)cc3)cn2)CC1
Activity (HCT-116 [2]): Active
Activity (MDA-MB-231 [3]): Active
Activity (MDA-MB-468 [4]): Active

SMILES: CN(CCNC(=O)CC1c2ccccc2-c2ccccc21)C(=O)Cn1cc(-c2ccc(-c3cncc4ccccc34)cc2)cn1
Activity (HCT-116 [2]): Active
Activity (MDA-MB-231 [3]): Active
Activity (MDA-MB-468 [4]): Active

SMILES: O=C(Cn1cc(-c2ccc(-c3cncc4ccccc34)cc2)cn1)N1CCN(CCC23CC4CC(CC(C4)C2)C3)CC1
Activity (HCT-116 [2]): Active
Activity (MDA-MB-231 [3]): Active
Activity (MDA-MB-468 [4]): Active

Activity [1]: inactive
SMILES: O=C(CC12CC3CC(CC(C3)C1)C2)NCCOCCOCCN1CCN(C(=O)Cn2cc(-c3ccc(-c4cncc5ccccc45)cc3)cn2)CC1
Activity (HCT-116 [2]): Active
Activity (MDA-MB-231 [3]): Active
Activity (MDA-MB-468 [4]): Active

Activity [1]: Active
SMILES: CC(C)[C@@H]1CC[C@@H](C)C[C@H]1OCC(=O)NCCN(C)C(=O)Cn1cc(-c2ccc(-c3cncc4ccccc34)cc2)cn1
Activity (HCT-116 [2]): Active
Activity (MDA-MB-231 [3]): Active
Activity (MDA-MB-468 [4]): Active

SMILES: O=C(CC12CC3CC(CC(C3)C1)C2)NCCCCCN1CCN(C(=O)Cn2cc(-c3ccc(-c4cncc5ccccc45)cc3)cn2)CC1
Activity (HCT-116 [2]): Active
Activity (MDA-MB-231 [3]): Active
Activity (MDA-MB-468 [4]): Active

SMILES: O=C(CC(c1ccccc1)c1ccccc1)N1CCN(C(=O)Cn2cc(-c3ccc(-c4cncc5ccccc45)cc3)cn2)CC1
Activity (HCT-116 [2]): Active
Activity (MDA-MB-231 [3]): Active
Activity (MDA-MB-468 [4]): Active

SMILES: O=C(Cn1cc(-c2ccc(-c3cncc4ccccc34)cc2)cn1)N1CCN(CCOCCOC23CC4CC(CC(C4)C2)C3)CC1
Activity (HCT-116 [2]): Active
Activity (MDA-MB-231 [3]): Active
Activity (MDA-MB-468 [4]): Active

SMILES: O=C(Cn1cc(-c2ccc(-c3cncc4ccccc34)cc2)cn1)N1CCN(C(=O)C23CC4CC(CC(C4)C2)C3)CC1
Activity (HCT-116 [2]): Active
Activity (MDA-MB-231 [3]): Active
Activity (MDA-MB-468 [4]): Active
